Laboratory results from paper PMC5531637, “The effect of mangiferin on skin: Penetration, permeation and inhibition of ECM enzymes” (PLoS ONE, 2017).

How the values were obtained:
[1] = biological target: Collagenase from Clostridium histolyticum; assay: Spectrophotometric collagenase assay with FALGPA as substrate; type: biochemical
Procedure: A spectrophotometric collagenase assay was performed as previously described, with N-[3- (2-Furyl) acryloyl]- Leu- Gly- Pro-Ala (FALGPA) as the substrate. […] The reaction mixtures were preincubated with mangiferin solutions for 15 minutes at room temperature. The addition of FALGPA started the reaction. Changes in product formation were recorded every 20 seconds for 20 minutes in the absorbance λ = 335 nm with the use of the Epoch (BioTek System) spectrophotometer in 96-well plates (BIOCOM SYSTEMS). Oleanolic acid was used as a control. The kinetic parameters Vo, Km and Vmax were calculated according to Michaelis-Menten and Lineweaver-Burk plots and analyzed in the GraphPad prism program and Excel.
As stated by the data supplier: 1U of collagenase hydrolyses […] FALGPA/min at pH 7.5 and 25°C, in the presence of calcium ions.

mice = conditions: 2 g/kg; cited from earlier work
[2] = type: in vitro ADME; conditions: human, 25 μg/ml
Procedure: The studies were performed using human cadaver full skin (thickness of 0.75 mm) obtained from the region of the thorax of 40–60 years old donors. The study was reviewed and approved by the Independent Bioethics Commission for Research of the Medical University of Gdansk (number NKBBN/120-41/2014). Before the experiment, the skin was stored frozen at -20 °C. The preparations were applied as an infinite dose (0.5 ml mangiferin solution at concentration of 25 μg/ml) on the surface of the skin placed in the flow-through Teflon® diffusion chamber (Crown Glass, USA), and left for 24 h. The diffusion area of the skin was 0.65 cm^2. The donor compartment of the chamber remained occluded, and the system was maintained at the temperature 37°C ± 0.5°C. Saline solution, 20 ml, preserved with 0.005% sodium azide (Fluka, Buchs, Switzerland) was recirculated beneath the skin with a constant rate of 10 ml/h. Acceptor fluid ensured the sink condition. After the penetrants were removed from the skin, the stratum corneum was separated by tape-stripping method, using 30 fragments of an adhesive tape (3M Medica Pharma, St. Paul, MN, USA). The following parameters were employed: pressure about 1 kg/cm^2 (applied by stamp), 2 s duration of pressure, and a rapid removal rate at an angle of 45^o. The skin layers were isolated by the heat separation technique. […]

[3] = system: human cervix adenocarcinoma cell line (HeLa); set-up: method as in PMID 24633329; conditions: cited from earlier work
[4] = biological target: porcine pancreatic elastase (Sus scrofa, UniProt P00772); assay: Spectrophotometric elastase assay with SANA as substrate; type: biochemical
Procedure: A spectrophotometric elastase assay was performed as previously described [25], with N-Succ-(-Ala)3-p-nitroanilide (SANA) as the substrate. […] The addition of SANA started the reaction. Changes in product formation: p-nitroaniline was recorded every 20 seconds for 20 minutes in the absorbance λ = 410 nm with the use of the Epoch (BioTek System) spectrophotometer in 96-well plates (BIOCOM SYSTEMS). The oleanolic acid was used as a control [26]. Kinetic parameters Vo, Km and Vmax were calculated according to Michaelis-Menten and Lineweaver-Burk plots and analyzed in the GraphPad prism program and Excel.
As stated by the data supplier: 1U elastase hydrolyses 1 μM SANA/min at pH 8 and 25°C. The molar absorption coefficient of p-nitroaniline is 9800 M^–1 cm^–1.

[5] = set-up: method as in ref 21 = [21]; 21 Nuñez-Selles AJ . Antioxidant therapy: myth or reality? J Braz Chem Soc . 2005; 16 : 699 – 710 .; conditions: cited from earlier work
[6] = set-up: method as in ref 18 = [18]; 18 Acosta J , Sevilla I , Salomón S , Nuevas L , Romero A , Amaro D . Determination of mangiferin solubility in solvents used in the biopharmaceutical industry . Pharm Pharmacogn Res . 2016; 4 ( 2 ):; conditions: cited from earlier work
rats = conditions: 2 g/kg; cited from earlier work
[7] = system: human acute myeloid leukemia cell line HL-60; set-up: method as in PMID 21547680; conditions: cited from earlier work

Chain of porcine pancreatic elastase (P00772 27-266): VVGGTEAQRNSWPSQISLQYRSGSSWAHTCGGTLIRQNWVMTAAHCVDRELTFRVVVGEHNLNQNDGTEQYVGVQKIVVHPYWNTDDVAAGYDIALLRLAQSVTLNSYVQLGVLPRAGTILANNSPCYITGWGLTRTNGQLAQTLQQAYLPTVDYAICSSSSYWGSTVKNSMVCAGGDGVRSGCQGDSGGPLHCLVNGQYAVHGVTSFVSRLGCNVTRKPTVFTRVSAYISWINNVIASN

O=c1c2cc(O)c(O)cc2oc2cc(O)c([C@@H]3O[C@H](CO)[C@@H](O)[C@H](O)[C@H]3O)c(O)c12 [mangiferin, 2-C-β-D-glucopyranosyl-1,3,6,7-tetrahydroxyxanthone]
IC50 ([1]; FALGPA 0.8 mM, pH 7.5, 15 min preincubation, read-out: concentration leading to a 50% loss of collagenase activity (IC50)): 254 ± 7.56 µM
concentrations that inactivated collagenase almost completely ([1]; FALGPA substrate): above 500 μM
type of collagenase inhibition ([1]; Lineweaver-Burk plots): noncompetitive
reversibility of collagenase inhibition ([1]; activity vs enzyme concentration plots): reversible
potency on collagenase relative to oleanolic acid (fold lower) ([1]; vs reference oleanolic acid): 4.9 fold
dermal acute toxicity (mice): did not show toxic effects
amount permeated through the skin from ethanol solution relative to water solution [2]: about 2 fold
concentration in the acceptor fluid after 24 hours relative to after 2 hours [2]: about 2 fold
effect on apoptotic effects of hesperidin in HeLa cells [3]: enhanced apoptotic effects of hesperidin
type of elastase inhibition ([4]; Lineweaver-Burk plots, 0, 59, 118 and 177 μM): noncompetitive
IC50 ([4]; SANA 0.8 mM, pH 8, 15 min preincubation, read-out: concentration leading to a 50% loss of elastase activity (IC50)): 140 ± 9.34 µM
concentrations that inactivated elastase almost completely ([4]; SANA substrate): above 473 μM
reversibility of elastase inhibition ([4]; activity vs enzyme concentration plots, 0, 59, 118 and 177 μM): reversible
potency on elastase relative to oleanolic acid (fold lower) ([4]; vs reference oleanolic acid): 4.2 fold
log P [5]: 2.73
solubility in ethanol ([6]; ethanol): slightly soluble
solubility in nonpolar solvents ([6]; some nonpolar solvents (e.g. n-hexane, diethyl ether)): practically insoluble
solubility in water ([6]; water): sparingly soluble
dermal acute toxicity (rats): did not show toxic effects
apoptosis in HL-60 cells [7]: induce apoptosis
